Experimental findings from a melting point compilation (Tetko et al.; mined from patent text by program, amines drawn as free bases though some values may be those of a salt) are described below.

Structures are written as SMILES. Some results are limits rather than exact numbers.

As for `CC(C)Cn1cnc2c(N)nc3cccnc3c21`, the melting point was in the range of 230 to 232 °C. The result for `CCN1c2ncccc2C(SC)=Nc2c(C)cc(C)nc21` reads 130 to 132 °C; that for `CCS(=O)(=O)Nc1nc(CN2CCC(OC(c3ccccc3)c3ccccc3)CC2)cs1`, 190 to 191 °C. The figure for `CCCCc1nc2cccc(C(=O)O)c2n1Cc1ccc(-c2c(-c3nnn[nH]3)oc3ccccc23)cc1` is 194 to 195 °C; for `C#Cc1cnn2c(C)cc(-c3ccc(C(F)(F)F)cc3)nc12` it is 89 to 90 °C; for `O=C(O)COc1cc2cc(C3CCCCC3)sc2c(Cl)c1Cl` it is 167 to 168 °C. For the molecule `Nc1ccc(-n2ncnc2-c2ccc(F)cc2)cc1`, the melting point lay within 147 to 150 °C. `CCCCn1c(=O)c2c(NC)n[nH]c2n(Cc2ccccc2)c1=O`: the melting point was in the range of 282 to 284 °C. The figure for `COc1cccc(N(C)C(=S)Oc2ccc3c(c2)CCCC3)n1` is 99 to 100 °C. The result for `Oc1cc2c(cc1CCCOc1ccccc1)OC(CCc1ccccc1)C2` (configuration not stated) reads 65 to 70 °C; that for `COC(=O)c1c(Cc2ccc(S(C)(=O)=O)nc2)c(=O)c2ccc(C)nc2n1-c1ccccc1`, 217 to 218 °C. `CC12CCC(O[Si](C)(C)C(C)(C)C)CC1=CC(=O)C1C2CCC2(C)C(O[Si](C)(C)C(C)(C)C)CCC12` (configuration not stated) yielded a melting point of 99 to 101 °C. In turn, `CCCCc1nn(-c2cc(C(=O)N(C)CCCC)ccc2Cl)c(=O)n1Cc1ccc(-c2ccccc2S(=O)(=O)NC(=O)c2ccccc2Cl)cc1` yielded a melting point of over 90 °C. In turn, `Cc1cc2c(c(C)c1NC(=O)NC(C)(C)C)C(c1ccc(C(C)C)cc1)CO2` (single isomer, unassigned; (+)) yielded a melting point of 205 to 206 °C. The result for `Cc1c(C(=O)O)cccc1-n1cccc1` reads 146 to 148 °C; that for `CCN1CCC2(CC1)CN=C(c1cc3cccc(N(C)S(=O)(=O)c4cccs4)c3[nH]1)S2`, 215 °C. The result for `CCOP(=O)(OCC)C(Nc1nocc1C)P(=O)(OCC)OCC` reads 68 to 69 °C; that for `CCCCC1COC(c2ccc(OC(F)(F)F)cc2)OC1` (configuration not stated), 23 °C; that for `CCCCCCCNC(=O)N(C)c1cccc(-c2ccc(C=CC(=O)O)c(F)c2)c1`, 148 to 149 °C. Molecule `Cc1cc(Cn2nc(C(F)(F)C(F)(F)F)nc2C(F)(F)F)ccc1N` registered a melting point of 60 to 63 °C. Consider `COC(c1ccc(Cl)c2nc3n(c12)CCCN3c1ccc(Cl)cc1Cl)C(F)(F)F` (configuration not stated), for which the melting point lay in the range of 161 to 163 °C. The result for `COc1ccc(-c2cc(=O)n(CC3CC3)nc2-c2ccc(OC)c(F)c2)cc1F` reads 142 to 143 °C; that for `O=C(NCCNCC1COc2ccccc2O1)C12CC3CC(CC1C3)C2` (configuration not stated), 143 to 144 °C. `O=C1c2ccccc2C(=O)N1C1CCCc2sccc21` (configuration not stated): the melting point lay within 166 to 168 °C. Turning to `COC(=O)COc1ccc(SCc2cc(-c3ccc(C(F)(F)F)cc3)on2)c2c1CCCO2`, the melting point fell in the range of 112 to 113 °C. The figure for `O=C(Cn1cnc2cc(-c3ccc(Cl)cc3)sc2c1=O)c1ccc2c(c1)CCN(C(=O)C(F)(F)F)CC2` is 285 to 287 °C. The result for `BrCc1cccc(-c2cccc(CBr)n2)n1` reads 180 to 181 °C; that for `C[C@]1(F)C(=O)O[C@H](COC(=O)c2ccc(Cl)cc2)[C@H]1OC(=O)c1ccc(Cl)cc1`, 138 to 141 °C; that for `O=C(c1ccc(O)cc1)N1CCN(CC(O)Cn2c3ccccc3c3ccccc32)CC1` (configuration not stated), 184 °C.

`Cc1ccc(C)c(-c2sc(NC(=O)[C@@H]3CC4CCC3CC4)c(C#N)c2Cl)c1` showed a melting point of 208 to 210 °C. `NNc1ccc(Cl)cn1` yielded a melting point of 116 to 122 °C. Regarding `CN1CCC(OC(=O)N2c3ccccc3NC(=O)c3ccccc32)CC1`, the melting point was 203 to 204 °C. The figure for `CC(=O)c1c(O)cc(O)cc1O` is 218 to 219 °C; for `O=C(O)c1cn(C2CC2)c2c(F)c(-n3cnc(-c4ccccc4)c3)c(F)cc2c1=O` it is 286 to 288 °C; for `COc1cc(C=C2SC(=O)NC2=O)cc(OC)c1O` it is 248 to 249 °C. The figure for `OC1(C#Cc2ccc(-c3ccccn3)cc2)CN2CCC1CC2` (configuration not stated) is 205 to 206 °C; for `COc1ccc2c(c1)C(=O)C(=Cc1cccc([N+](=O)[O-])c1)C(C)(C)O2` it is 103 to 105 °C.

On to `COc1ccc(-c2cc3n(n2)C(=O)c2ccccc2-3)cc1`, for which the melting point fell in the range of 180 to 181 °C. The figure for `COCOc1cc2c(cc1C=O)C(C)(C)CCC2(C)C` is 84 to 85 °C. The figure for `COc1ccc(C=C(C(=O)C2CC2)C(=O)C2CC2)cc1` is 60.5 to 61.5 °C; for `O=C(NC1CCCC1)c1ccc2nonc2c1` it is 169 to 170 °C. The molecule `CC(C)(C)C1OC1C(O)c1ccc(F)cc1` (configuration not stated) displayed a melting point of 56 to 59 °C. The result for `O=C(CCC1CCNCC1)c1ccc2c(c1)NCCCC2` reads 104 to 107 °C. On to `OC(CCl)(Cc1ccccc1Cl)c1ccc(Cl)cc1` (configuration not stated), for which the melting point was in the range of 64 to 69 °C.

Consider `COCOc1c(CCO)c(OC)c(OCOC)c(CCCCCc2c(OC)c(OCOC)c(CCO)c(OC)c2OCOC)c1OC`, for which the melting point fell in the range of 68 to 70 °C. The figure for `Cc1cccnc1-n1c(S(=O)Cc2ccccc2N(C)C)nc2c1CCC2` (configuration not stated) is 119 to 120 °C; for `CN1CCC(=C2c3ccccc3OCc3cc(Br)sc32)CC1` it is 101 to 103 °C.

`COc1cc(C=C2SC(N3CCOCC3)=NC2=O)cc(-c2ccc(O)c(C34CC5CC(CC(C5)C3)C4)c2)c1O`: the melting point lay in the range of 335 to 338 °C. `CC(C)n1nc(-c2nc(C(=O)O)c(N)nc2-c2ccccc2)ccc1=O`: the melting point lay in the range of 233 to 235 °C. The result for `CCCc1c(OCCOc2cccc(C(=O)O)c2)ccc(C(C)=O)c1O` reads 155 °C; that for `Nc1c(-c2ccc(O)cc2)ncnc1-c1ccc(Cl)cc1Cl`, 97.3 to 98.2 °C; that for `Cn1c(CN2C(=O)c3ccccc3C2=O)c(-c2ccc(O)cc2)c2cc(Cl)ccc2c1=O`, 307 to 308 °C. The figure for `Cn1nc(N2c3ccccc3C[C@H]2C(=O)O)ccc1=O` is 245 to 247 °C.

`O=C1c2ccc(N3CCCCC3)cc2C(=O)c2cc3ccccc3cc21` registered a melting point of 230 to 233 °C. The figure for `COc1ccc(OCc2ccccc2)c2[nH]c(C)c(C)c12` is 76 °C; for `CCC[C@H](N[C@@H](C)C(=O)N1N=C(C(C)(C)C)S[C@H]1C(=O)O)C(=O)OCC` it is 183 to 185 °C; for `COc1ccc(-c2cc(=O)n(Cc3ccncc3)nc2-c2ccc(OC)cc2)cc1` it is 182 to 183 °C. `CN(C(=O)Nc1ccc(Cl)cc1)c1nnc(Cl)s1` gave a melting point of 250 °C. Molecule `C[Si](C)(C)OCCCc1c[nH]c2ccccc12` returned a melting point of 34 to 38 °C. As for `CCCOc1c(OCCCN2C(=O)c3ccccc3C2=O)cc(C2CCC(c3cc(OC)c(OC)c(OC)c3)O2)cc1S(=O)(=O)CCC` (configuration not stated), the melting point was in the range of 195 to 196 °C. The figure for `CCCCCCCCCC(=O)c1cn(CCCC(=O)O)c2ccccc12` is 89 to 90 °C; for `C=CCOC(=O)COc1cccc(NC(=O)NCNC(=O)c2ccccc2C(=O)c2ccccc2)c1` it is 147 to 149 °C. The figure for `CNC(=O)ON=C(Nc1ccc(C(F)(F)F)cc1)C1=NN(c2ccc(Cl)cc2)C(c2ccc(F)cc2)C1` (configuration not stated) is 75 to 77 °C; for `Cc1cccc(-c2ccc3c(C(N)=O)nn(-c4ccc(S(N)(=O)=O)cc4)c3c2)c1` it is 261 to 263 °C; for `CN(C)C(=O)C(C)(C)n1cc(Cl)c(-c2ccccc2Cl)n1` it is 161 to 163 °C.

`COc1ccc(C(=O)C2Cc3cc(OC)ccc3C2=O)cc1` (configuration not stated) showed a melting point of 160 to 162 °C. The result for `CC1(C)Oc2ccc(C=O)cc2C(N2CCCC2=O)C1O` (configuration not stated) reads 196 to 198 °C. The result for `O=C(Nc1ccc(C(=O)N2Cc3ccccc3Oc3ccccc32)c(Cl)c1)c1ccccc1-c1ccccc1` reads 145 to 188 °C; that for `CCOC(=O)C(=O)Nc1cccc(OCCO)c1C(N)=O`, 146 to 148 °C; that for `CC1(C)OC(=O)Nc2ccc(-c3cccc(CC#N)c3)cc21`, 188 to 190 °C. The figure for `CNc1c([N+](=O)[O-])ccc2c1OC(COS(=O)(=O)c1ccc(C)cc1)CO2` (configuration not stated) is 149 to 151 °C; for `O=C(O)CNC(=O)c1ccc([N+](=O)[O-])cc1[N+](=O)[O-]` it is 188 to 190 °C. On to `O=c1[nH]c2cc(Cl)c(Cl)cc2[n+]([O-])c1-c1ccccc1O`, for which the melting point was in the range of 266 to 268 °C. The result for `Cc1c[nH]c(-c2ccc(OCC(O)CNC3CC3)cc2)n1` (configuration not stated) reads 150 to 154 °C; that for `O=S1(=O)N=CN(C2CCCCCCC2)c2cc(Cl)ccc21`, 209 to 211 °C. The figure for `CCOc1ccc2c(c1)n(C1CCCCC1)c(=O)n2S(=O)(=O)c1ccc(C(=O)O)cc1OC` is 205 °C; for `O=C(O)CCC(=O)c1ccc(OC2CCCCC2)cc1` it is 190 to 192 °C; for `Cc1[nH]cnc1C(=O)OCc1ccccc1` it is 203 to 205 °C. As to `NNc1ccc(Cl)c(Cl)c1Cl`, the melting point lay within 138 to 140 °C. As for `OC1(C2CCC(c3c(F)cccc3F)=N2)C=CC(c2ccccc2)=CC1` (configuration not stated), the melting point amounted to 217 °C. The figure for `CCC(C)n1nnc2c(N=C=S)cccc21` (configuration not stated) is 77 to 78 °C; for `CCCCc1nc2cc(CO)ccc2n1Cc1ccc(-c2ccccc2C(=O)O)cc1` it is 130 to 143 °C; for `Oc1ccc(-c2nn(-c3ccc(Br)cc3)c3cc(O)ccc23)c(O)c1` it is 246 °C.

For the molecule `CCOC(C#CCN1CCC(NC(=O)c2ccccc2)CC1)OCC`, the melting point came to 130 °C. `NS(=O)(=O)c1ccc(C=Nc2ccc(SSc3ccc(N=Cc4ccc(S(N)(=O)=O)cc4)cc3)cc2)cc1` yielded a melting point of 200 to 230 °C. Consider `CCc1noc(-c2cn(-c3c[nH]c4ccccc34)cn2)n1`, for which the melting point fell in the range of 198 to 199 °C.

The molecule `C/C(=C(\C#N)C(N)=S)N1CCc2ccccc2C1` yielded a melting point of 244 to 245 °C.

By melting point is commonly meant the temperature of the solid-liquid transition.
